Source: the supplement of paper PMC10307832

What was measured:
Assay in all cases: relative viability (nuclei count vs DMSO), 5 days (fraction); higher = more cells survive
Venetoclax + Bortezomib = compound: CC1(C)CCC(CN2CCN(c3ccc(C(=O)NS(=O)(=O)c4ccc(NCC5CCOCC5)c([N+](=O)[O-])c4)c(Oc4cnc5[nH]ccc5c4)c3)CC2)=C(c2ccc(Cl)cc2)C1 [Venetoclax] + CC(C)C[C@H](NC(=O)[C@H](Cc1ccccc1)NC(=O)c1cnccn1)B(O)O [Bortezomib] (partner 0.002 µM)
Summary of the method: (§1)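 Relative viability equals treated-well nuclei counts divided by vehicle-well nuclei counts. Counts came from 4× images of lung cancer cell lines grown in 1536-well plates for 5 days after pin-tool dosing on the day after seeding. Dosing used one drug alone or a fixed anchor-drug dose plus five library-drug doses (not always all listed) in √10 steps, and values are medians of duplicate plates.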

Venetoclax + Dasatinib = compound: CC1(C)CCC(CN2CCN(c3ccc(C(=O)NS(=O)(=O)c4ccc(NCC5CCOCC5)c([N+](=O)[O-])c4)c(Oc4cnc5[nH]ccc5c4)c3)CC2)=C(c2ccc(Cl)cc2)C1 [Venetoclax] + Cc1nc(Nc2ncc(C(=O)Nc3c(C)cccc3Cl)s2)cc(N2CCN(CCO)CC2)n1 [Dasatinib] (partner 0.075 µM)
Summary of the method: as §1

Selumetinib + Trametinib = compound: Cn1cnc2c(F)c(Nc3ccc(Br)cc3Cl)c(C(=O)NOCCO)cc21 [Selumetinib] + CC(=O)Nc1cccc(-n2c(=O)n(C3CC3)c(=O)c3c(Nc4ccc(I)cc4F)n(C)c(=O)c(C)c32)c1 [Trametinib] (partner 0.02 µM)
Summary of the method: as §1

Selumetinib + Foretinib = compound: Cn1cnc2c(F)c(Nc3ccc(Br)cc3Cl)c(C(=O)NOCCO)cc21 [Selumetinib] + COc1cc2c(Oc3ccc(NC(=O)C4(C(=O)Nc5ccc(F)cc5)CC4)cc3F)ccnc2cc1OCCCN1CCOCC1 [Foretinib] (partner 0.25 µM)
Summary of the method: as §1

Cell Line | relative viability (Venetoclax + Bortezomib; first compound 0.01 µM) | relative viability (Venetoclax + Bortezomib; first compound 0.03162 µM) | relative viability (Venetoclax + Bortezomib; first compound 0.1 µM) | relative viability (Venetoclax + Bortezomib; first compound 0.3162 µM) | relative viability (Venetoclax + Bortezomib; first compound 1 µM) | relative viability (Venetoclax + Dasatinib; first compound 0.01 µM) | relative viability (Venetoclax + Dasatinib; first compound 0.03162 µM) | relative viability (Venetoclax + Dasatinib; first compound 0.1 µM) | relative viability (Venetoclax + Dasatinib; first compound 0.3162 µM) | relative viability (Venetoclax + Dasatinib; first compound 1 µM) | relative viability (Selumetinib + Trametinib; first compound 0.02 µM) | relative viability (Selumetinib + Trametinib; first compound 0.06325 µM) | relative viability (Selumetinib + Trametinib; first compound 0.2 µM) | relative viability (Selumetinib + Trametinib; first compound 0.6325 µM) | relative viability (Selumetinib + Foretinib; first compound 0.02 µM) | relative viability (Selumetinib + Foretinib; first compound 0.06325 µM) | relative viability (Selumetinib + Foretinib; first compound 0.2 µM) | relative viability (Selumetinib + Foretinib; first compound 0.6325 µM)
NCI-H1915 | 0.972 | 0.965 | 0.908 | 0.971 | 0.919 | 0.303 | 0.301 | 0.311 | 0.297 | 0.32 | 0.311 | 0.302 | 0.288 | 0.257 | 1.16 | 1.03 | 0.812 | 0.529
HCC-827 | 1.04 | 1.06 | 1.08 | 1.11 | 1.01 | 0.336 | 0.368 | 0.34 | 0.33 | 0.334 | 0.528 | 0.554 | 0.541 | 0.549 | 0.942 | 0.983 | 0.989 | 0.86
LC-2-ad | 0.834 | 1.02 | 0.968 | 0.907 | 0.94 | 0.575 | 0.612 | 0.522 | 0.671 | 0.544 | 0.954 | 0.88 | 0.822 | 0.9 | 0.828 | 0.722 | 0.643 | 0.533
NCI-H460 | 1.06 | 1.06 | 1.06 | 1.03 | 0.904 | 0.597 | 0.532 | 0.401 | 0.527 | 0.478 | 0.115 | 0.139 | 0.138 | 0.104 | 0.949 | 0.899 | 0.886 | 0.404
NCI-H441 | 0.651 | 0.91 | 0.532 | 0.451 | 0.476 | 0.685 | 0.667 | 0.482 | 0.546 | 0.596 | 0.457 | 0.429 | 0.573 | 0.455 | 0.964 | 0.839 | 0.903 | 0.667
LCLC-97TM1 | – | 0.99 | 0.609 | 1.02 | 0.403 | 0.856 | 0.888 | 0.764 | 0.733 | 0.802 | 0.195 | 0.171 | 0.201 | 0.19 | 0.898 | 0.818 | 0.585 | 0.525
COR-L23 | 0.91 | 1.06 | 0.982 | 0.98 | 0.896 | 0.414 | 0.505 | 0.484 | 0.495 | 0.504 | 0.555 | 0.469 | 0.586 | 0.511 | 0.999 | 1.01 | 0.933 | 0.934
NCI-H2228 | 1.04 | 0.99 | 0.972 | 1.21 | 1.19 | 0.555 | 0.546 | 0.496 | 0.488 | 0.447 | 0.513 | 0.328 | 0.554 | 0.393 | 0.81 | 0.802 | 0.807 | 0.623
LCLC-103H | 1.02 | 1.04 | 1.16 | 1.09 | 1.1 | 0.48 | 0.439 | 0.479 | 0.463 | 0.45 | 0.635 | 0.707 | 0.66 | 0.672 | 0.744 | 0.64 | 0.646 | 0.72
NCI-H1793 | – | – | – | – | – | 0.448 | 0.355 | 0.291 | 0.358 | 0.27 | 0.424 | 0.414 | 0.443 | 0.436 | 0.69 | 0.511 | 0.386 | 0.415
NCI-H1792 | 0.764 | 0.928 | 1.05 | 0.924 | 0.86 | 0.843 | 0.803 | 0.556 | 0.759 | 0.755 | 0.439 | 0.521 | 0.452 | 0.402 | – | – | – | –
NCI-H522 | – | – | – | – | – | 0.938 | 0.951 | 0.805 | 0.8 | 0.848 | 0.859 | 0.727 | 0.757 | 0.888 | – | – | – | –
NCI-H1648 | – | – | – | – | – | – | – | – | – | – | – | 0.503 | 0.443 | 0.499 | – | – | – | –
SK-MES-1 | – | – | – | – | – | 0.4 | 0.383 | 0.329 | 0.408 | 0.376 | 0.561 | 0.579 | 0.476 | 0.461 | 0.831 | 0.818 | 0.534 | 0.491
NCI-H2342 | – | – | – | – | – | 0.436 | 0.341 | 0.325 | 0.288 | 0.331 | 0.838 | 0.835 | 0.789 | 0.975 | 0.922 | 1.09 | 0.961 | 0.981
NCI-H1299 | 1.05 | 1.02 | 0.979 | 0.999 | 0.98 | – | – | – | – | – | – | – | – | – | 1.23 | 1.08 | 1.09 | 0.935
SW 900 | – | – | – | – | – | 0.544 | 0.625 | 0.645 | 0.855 | 0.434 | 0.68 | 0.764 | 0.875 | 0.675 | 0.876 | 0.78 | 0.783 | 0.92
LK-2 | – | – | – | – | – | 0.403 | 0.319 | 0.259 | 0.247 | 0.255 | 0.834 | 0.753 | 0.844 | 0.69 | 1.68 | 1.51 | 0.968 | 1.23
HCC-44 | 0.85 | 0.93 | 0.948 | 0.829 | 0.904 | – | – | – | – | – | 1.03 | 0.993 | 0.999 | 1.14 | – | – | – | –
NCI-H1395 | – | – | – | – | – | 0.449 | 0.406 | 0.392 | 0.442 | 0.409 | 1.09 | 0.964 | 0.932 | 1.05 | 0.959 | 0.978 | 0.928 | 0.94
A549 | – | – | – | – | – | – | – | – | – | – | – | – | – | – | 0.779 | 0.581 | 0.546 | 0.32
NCI-H2170 | – | – | – | – | – | 0.569 | 0.508 | 0.373 | 0.556 | 0.502 | 0.934 | 0.957 | 0.853 | 0.921 | 0.987 | 0.954 | 0.967 | 0.952
ABC-1 | 0.291 | 0.314 | 0.446 | 0.31 | 0.309 | 0.665 | 0.655 | 0.445 | 0.658 | 0.604 | – | – | – | – | 0.906 | 0.882 | 0.951 | 0.767
